Experimental data as given in ChEMBL document CHEMBL4033635, “Structure, synthesis and biological properties of the pentacyclic guanidinium alkaloids” (Bioorg Med Chem, 2017).
In brackets after ≈: the same amount, converted by molar mass.

Legend:
[1] = test system: K562; test: Growth inhibition of human K562 cells; type: functional
[2] = test system: Human immunodeficiency virus 1; test: Antiviral activity against HIV1 LAV in human PBM cells; type: functional, cell-based; details: Human immunodeficiency virus 1, LAV
[3] = test system: Staphylococcus aureus; test: Antibacterial activity against Staphylococcus aureus; type: functional
[4] = test system: Staphylococcus aureus; test: Antibacterial activity against methicilin-resistant Staphylococcus aureus; type: functional
[5] = test system: Plasmodium falciparum; test: Antiprotozoal activity against chloroquine-sensitive Plasmodium falciparum D6 after 48 hrs by lactate dehydrogenase assay; type: functional; details: D6, 48 h
[6] = test system: Plasmodium falciparum; test: Antiprotozoal activity against chloroquine-resistant Plasmodium falciparum W2 after 48 hrs by lactate dehydrogenase assay; type: functional; details: W2, 48 h
[7] = Inhibition of pig cerebral cortex Na+/K+-ATPase; set-up: species or system Sus scrofa
[8] = Inhibition of rabbit sercoplasmic reticulum Ca+-ATPase; set-up: species or system Oryctolagus cuniculus
[9] = test system: Human immunodeficiency virus 1; test: Inhibition of HIV-1 reverse transcriptase at 10 uM
[10] = test system: HeLa; test: Antiproliferative activity against human HeLa cells; type: functional, cell-based
[11] = Displacement of [125I]-alphaBgt from Torpedo californica muscle-type nAChR preincubated for 2 to 3 hrs followed by [125I]-alphaBgt addition addition measured after 5 mins; set-up: species or system Tetronarce californica
[12] = molecular target: Neuronal acetylcholine receptor subunit alpha-7 (Homo sapiens, UniProt P36544); test: Displacemet of [125I]-alphaBgt from human alpha7 nAChR expressed in rat GH4C1 cells preincubated for 2 to 3 hrs followed by [125I]-alphaBgt addition measured after 5 mins; type: cell-based
[13] = Inhibition of Ca2+-ATPase (unknown origin); set-up: species or system Homo sapiens
[14] = molecular target: Eukaryotic translation initiation factor 5A-1 (Homo sapiens) (UniProt P63241); test: Inhibition of eIF5A-1 (unknown origin) at 1 uM
[15] = test system: K562; test: Cytotoxicity against human K562 cells; type: functional, cell-based

Sequence of Neuronal acetylcholine receptor subunit alpha-7 (P36544 whole entry): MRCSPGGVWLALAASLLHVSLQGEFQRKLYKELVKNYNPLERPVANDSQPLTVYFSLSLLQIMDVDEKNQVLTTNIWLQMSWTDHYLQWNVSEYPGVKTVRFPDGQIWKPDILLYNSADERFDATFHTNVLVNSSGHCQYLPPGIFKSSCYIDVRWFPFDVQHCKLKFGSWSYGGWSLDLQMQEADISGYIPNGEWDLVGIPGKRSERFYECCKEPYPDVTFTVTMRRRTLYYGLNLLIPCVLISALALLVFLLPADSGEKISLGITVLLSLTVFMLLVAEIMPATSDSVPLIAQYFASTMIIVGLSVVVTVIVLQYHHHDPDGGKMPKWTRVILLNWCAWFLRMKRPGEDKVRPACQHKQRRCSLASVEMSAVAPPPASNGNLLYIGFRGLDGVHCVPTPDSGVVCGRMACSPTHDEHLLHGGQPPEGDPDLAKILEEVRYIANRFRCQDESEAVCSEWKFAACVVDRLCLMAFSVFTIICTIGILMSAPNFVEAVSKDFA
Sequence of Eukaryotic translation initiation factor 5A-1 (Homo sapiens) (P63241 whole entry): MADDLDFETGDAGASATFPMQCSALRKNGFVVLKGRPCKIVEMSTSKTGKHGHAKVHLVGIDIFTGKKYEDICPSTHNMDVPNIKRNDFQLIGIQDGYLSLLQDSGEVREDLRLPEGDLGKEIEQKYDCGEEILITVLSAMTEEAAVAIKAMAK

CC[C@H]1C=CCC[C@@]2(C[C@@H]3CC[C@@H]4C(C(=O)OC/C=C/c5ccccc5)[C@]5(CCC[C@@H](C)O5)NC(=[N+]34)N2)O1 (stereo partly drawn)
GI50 [1]: < 1000 nM

CC[C@H]1C=CCC[C@@]2(C[C@@H]3CC[C@@H]4[C@H](C(=O)OCCCCCCCCCCCCCCCC(=O)N(CCCN)CCCN)[C@]5(CCC[C@@H](C)O5)NC(=N2)N34)O1
EC50 [2]: 11 nM
EC90 [2]: 46 nM
MIC [3]: 0.63 µg/mL (≈ 0.817 µM)
MIC [4]: 0.63 µg/mL (≈ 0.817 µM)
IC50 [5]: 0.11 to 0.12 µg/mL (≈ 0.143 to 0.156 µM)
IC50 [6]: 0.11 to 0.12 µg/mL (≈ 0.143 to 0.156 µM)
IC50 [7]: 2000 nM
IC50 [8]: 10000 nM
inhibition [9]: 55 to 64%

CC/C=C/[C@H]1CC[C@@]2(C[C@@H]3CC[C@@H]4[C@H](C(=O)OCCCCCCCCCCCCCCCC(=O)N(CCCN)CCCCN)[C@]5(CCC[C@@H](C)O5)N=C(N2)N34)O1
IC50 [10]: 580 to 2100 nM

CCC[C@@H]1CCC[C@@]2(N=C3N[C@]4(CCC=C[C@H](CC)O4)C[C@@H]4CC[C@H]([C@@H]2C(=O)OCCCCCCCCCCCCCCCC(=O)N(CCCN)CCCCN)N34)O1
Ki [11]: 8000 to 310000 nM
Ki [12]: 8000 to 310000 nM

CC/C=C/[C@H]1CC[C@@]2(C[C@@H]3CC[C@@H]4[C@H](C(=O)OCCCCCCCCCCCCCCC(O)C(=O)NCCCN)[C@]5(CCC[C@@H](C)O5)N=C(N2)N34)O1 (stereo partly drawn)
Ki [11]: 8000 to 310000 nM
Ki [12]: 8000 to 310000 nM
IC50 [10]: 580 to 2100 nM

NCCCCN(CCCN)C(=O)CCCCCCCCCCCCCCC(=O)O[C@H]1C[C@H]2C[C@@]3(CCCCO3)NC3=[N+]2[C@@H]1C[C@@]1(CCCCCO1)N3
IC50 [13]: 1000 nM

CC/C=C/[C@@H]1CC[C@]2(C[C@H]3CC[C@H]4[C@@H](C(=O)OC(CC)CCCCCCCCCCCCC[C@@H]5O[C@](O)(CCN)[C@H](O)N(CCCN)C5=O)[C@@]5(CCC[C@H](C)O5)NC(=[N+]34)N2)O1 (stereo partly drawn)
inhibition [14]: 50%

NCCCCN(CCCN)C(=O)CCCCCCCCCCCCCCC(=O)O[C@H]1C[C@H]2C[C@@]3(CCCCCO3)NC3=[N+]2[C@H]1C[C@]1(CCCCO1)N3
IC50 [13]: 3000 nM

CC[C@H]1C=CCC[C@@]2(C[C@@H]3CC[C@@H]4[C@H](C(=O)OCCCCCCCCCCCCCCCC(=O)N(CCCN)C[C@@H](O)CCN)[C@]5(CCC[C@@H](C)O5)NC(=N2)N34)O1
EC50 [2]: 40 nM
EC90 [2]: 120 nM

NCCCCN(CCCN)C(=O)CCCCCCCCCCCCCCCc1ccc2c(c1)[C@@H]1C[C@]3(CCCCO3)NC3=[N+]1[C@@H]2C[C@@]1(CCCCO1)N3.[Cl-]
inhibition [9]: 64%
IC50 [15]: 0.52 µg/mL
